Marks after values point to notes of the source that are not given here.
Columns and labels:
[1] = Chemical stability (nonenzymatic hydrolysis) in pH 7.4 phosphate buffer; assay type: physicochemical; details: 37°C, mean ± S.D.
Description: (§1) The experiments concerning prodrug stability were performed at 37°C in pH 7.4 phosphate buffers and Caco-2, AsPC-1, and MDCK cell homogenates.
Chemical Stability. The nonenzymatic hydrolysis of the prodrugs was determined as described above, except that each well contained pH 7.4 phosphate buffers (10 mmol/L) instead of cell homogenate.
(§2) The initial rates of hydrolysis were used to obtain the apparent first-order rate constants and to calculate the half-lives. The apparent first-order degradation rate constants of various floxuridine prodrugs at 37°C were determined by plotting the logarithm of prodrug remaining as a function of time. The slopes of these plots are related to the rate constant, k, and given by
(§3) k = 2.303 × slope (log C vs. time) (1)
(§4) The degradation half-lives were then calculated by the equation

[2] = Enzymatic stability in Caco-2 cell homogenates; assay type: in vitro ADME; details: for half-life: human, Caco-2, pH 7.4, 37°C, protein 500 μg/mL, mean ± S.D., read-out: Half Life, Homogenates from Caco-2 cells
Description: as §1
(§5) Enzymatic Stability. Confluent Caco-2 cells, AsPC-1 cells, and MDCK cells were rinsed twice with saline. The cells were washed with pH 7.4 phosphate buffer (5 mL, 10 mmol/L), lysed by ultrasonication (Micro ultrasonic cell disrupter Model KT40, Kontes, Vineland, NJ, USA), and pelleted by centrifugation for 5 minutes at 1,000 x g. Protein amount was quantified with the Bio-Rad (Hercules, CA, USA) DC Protein Assay using bovine serum albumin as a standard. The amount of protein was adjusted to 500 μg/mL and hydrolysis reactions were carried out in 96-well plates (Corning). Caco-2, AsPC-1, and MDCK cell suspensions (250 µL) were placed in triplicate wells, the reactions were started with the addition of substrate, and cells were incubated at 37°C for 120 minutes. At the desired time point, sample aliquots (35 µL) were removed and added to acetonitrile (ACN, 150 µL) with 0.1% TFA. The mixtures were filtered with a 0.45 µm filters at 1,000 x g for 10 minutes at 4°C. The filtrate was then analyzed via reverse-phase HPLC.
as §2, §3, §4

[3] = Enzymatic stability in AsPC-1 cell homogenates; assay type: in vitro ADME; details: for half-life: human, AsPC-1 cell homogenate, pH 7.4, 37°C, protein 500 μg/mL, mean ± S.D., read-out: Half Life, Homogenates from AsPC-1 cells
Description: as §1, §5, §2, §3, §4

[4] = Enzymatic stability in MDCK cell homogenates; assay type: in vitro ADME; details: dog, pH 7.4, 37°C, protein 500 μg/mL, mean ± S.D., read-out: Half Life, Homogenates from MDCK cells
Description: as §1, §5, §2, §3, §4

[5] = biological target: T1, hPEPT1 (Homo sapiens, UniProt P46059); assay: [3H]Gly-Sar uptake inhibition in Caco-2 cells; assay type: cell-based; details: for IC50: 10 µmol/L Gly-Sar, 30 minutes, mean ± S.D., read-out: IC50 Value, inhibition of Gly-Sar uptake, Caco-2 cell
T1 sequence (P46059 1-708): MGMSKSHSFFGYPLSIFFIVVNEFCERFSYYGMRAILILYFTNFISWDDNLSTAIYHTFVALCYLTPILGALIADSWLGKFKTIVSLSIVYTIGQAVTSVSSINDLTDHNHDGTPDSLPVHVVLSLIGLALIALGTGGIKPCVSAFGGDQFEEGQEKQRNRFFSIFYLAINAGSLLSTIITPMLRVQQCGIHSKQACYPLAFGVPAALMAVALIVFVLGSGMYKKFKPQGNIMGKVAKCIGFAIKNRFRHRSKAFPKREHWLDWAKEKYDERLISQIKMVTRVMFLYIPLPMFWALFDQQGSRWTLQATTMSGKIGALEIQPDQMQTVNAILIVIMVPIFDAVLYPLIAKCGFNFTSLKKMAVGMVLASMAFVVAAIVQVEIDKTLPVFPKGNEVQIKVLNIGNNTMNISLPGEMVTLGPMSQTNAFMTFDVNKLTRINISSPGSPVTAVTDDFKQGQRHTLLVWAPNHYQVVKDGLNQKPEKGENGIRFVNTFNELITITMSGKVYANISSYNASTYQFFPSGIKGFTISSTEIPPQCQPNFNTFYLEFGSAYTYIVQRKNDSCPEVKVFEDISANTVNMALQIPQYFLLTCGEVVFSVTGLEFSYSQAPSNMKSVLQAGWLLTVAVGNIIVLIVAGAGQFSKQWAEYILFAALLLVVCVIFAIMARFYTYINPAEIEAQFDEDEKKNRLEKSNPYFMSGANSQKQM
Description: (§6) Caco-2 cells at nine days post-seeding, and AsPC-1 cells at four days post-seeding were incubated with 10 µmol/L Gly-Sar (9.98 µmol/L Gly-Sar and 0.02 µmol/L [3H]Gly-Sar) along with various prodrug concentrations (5–0.05 mmol/L) for 30 minutes. The cells were washed three times with ice-cold PBS and solubilized with 10 mL of scintillation cocktail (ScintiVerse®, Fisher Scientific, St.Louis, MO, USA). The amount of cell-associated radioactivity was determined by scintillation counting (Beckman LS-9000, Beckman Instruments, Fullerton, CA, USA). The half maximal inhibitory concentration (IC50) values were determined using nonlinear data fitting (GraphPad Prism version 3.0).

[6] = biological target: T1, hPEPT1; assay: [3H]Gly-Sar uptake inhibition in AsPC-1 cells; assay type: cell-based; details: for IC50: 10 µmol/L Gly-Sar, 30 minutes, mean ± S.D., read-out: IC50 Value, inhibition of Gly-Sar uptake, AsPC-1 cell
Description: as §6

[7] = test system: MDCK cells; assay: Cell proliferation assay (XTT) in MDCK cells; assay type: cell-based; details: Canis lupus familiaris, 2 hours exposure, 24 hours recovery, mean ± S.D.
Description: (§7) Cell proliferation studies were conducted with MDCK cells and MDCK cells that express hPEPT1 (MDCK/hPEPT1). The cells were seeded into 96-well plates at 125,000 cells per well and allowed to attach/grow for 24 hours before drug solutions were added. The culture medium (DMEM + 10% fetal bovine serum) was removed and the cells were gently washed once with sterile pH 6.0 uptake buffer. Floxuridine and floxuridine prodrugs were 2-fold serially diluted in pH 6.0 uptake buffer from 4 to 0.25 mmol/L. Buffer alone was used as 100% viability control. The wash buffer was removed and 30 µL drug solution per well was added and incubated at 37°C for 2 hours in the cell incubator. After this time, the drug solutions were removed and the cells were again gently washed twice with sterile uptake buffer. The culture medium was then added to each well after washing. The cells were allowed to recover for 24 hours before evaluating cell viability via 2,3-bis[2-methoxy-4-nitro-5-sulfophenyl]-2H-tetrazolium-5-carboxanilide inner salt (XTT) assays. A mixture (30 µL) containing XTT (1 mg/mL) in sterile DMEM without phenol red and phenazine methosulfate (N-methyldibenzopyrazine methyl sulfate in sterile PBS, 0.383 mg/mL) reagents were added to the cells and incubated at 37°C for 1 hour, after which the absorbance at 450 nm was read. The concentrations required to inhibit cell growth by 50% (GI50) were calculated using GraphPad Prism version 3.0 by nonlinear data fitting.

[8] = test system: MDCK/hPEPT1 cells; assay: Cell proliferation assay (XTT) in MDCK/hPEPT1 cells; assay type: cell-based; details: for GI50: Canis lupus familiaris, MDCK, read-out: GI50, MDCK/hPEPT1
Description: as §7

[9] = parameters: method as in PMID 16132363; details: pH 7.4 phosphate buffer, 37°C, mean ± S.D.; ref [40]; cited from earlier work
[10] = Caco-2 permeability study (apical-to-basolateral); details: relative to 5-FU
[11] = relative to 5'-O-L-valyl-floxuridine

SMILES	half-life [1] [min]	half-life [2] [min]	half-life [3] [min]	half-life [4] [min]	IC50 [5] [µM]	IC50 [6] [µM]	GI50 [7] [µM]	GI50 [8] [µM]	Enhancement Factor (ratio of GI50 in MDCK and MDCK/hPEPT1 cells) [8]	also measured
NCC(=O)OC[C@H]1O[C@@H](n2cc(F)c(=O)[nH]c2=O)C[C@@H]1O [5'-O-L-glycyl-floxuridine]	85.5 ± 3.2	24.1 ± 2	27.6 ± 5.8	11.2 ± 2	2300 ± 600	2700 ± 500	–	–	–	–
CC(C)C[C@H](N)C(=O)OC[C@H]1O[C@@H](n2cc(F)c(=O)[nH]c2=O)C[C@@H]1O [5'-O-L-leucyl-floxuridine]	77.3 ± 1.2	4.8 ± 0.2	2 ± 0.1	9.2 ± 1.1	2000 ± 300	2600 ± 200	23.5 ± 3	2.3 ± 1	10.09	fold more quickly hydrolyzed in AsPC-1 cell homogenates than in Caco-2 cell homogenates ([3]; AsPC-1 vs Caco-2 homogenates): 2.4 fold; fold more quickly hydrolyzed in AsPC-1 cell homogenates than in MDCK cell homogenates ([3]; AsPC-1 vs MDCK homogenates): 4.7 fold; Enhancement Factor (ratio of GI50 in MDCK and MDCK/hPEPT1 cells) ([8]; listed as 5ʹ-O-L-leucyl-floxuridine): 10
CC[C@H](C)[C@H](N)C(=O)OC[C@H]1O[C@@H](n2cc(F)c(=O)[nH]c2=O)C[C@@H]1O [5'-O-L-isoleucyl-floxuridine]	–	192 ± 31.8	198 ± 34.1	245 ± 18.3	700	4100 ± 1800	186 ± 4.2	10.3 ± 2.9	18.04	Enhancement Factor (ratio of GI50 in MDCK and MDCK/hPEPT1 cells) ([8]; listed as 5ʹ-O-L-isoleucyl-floxuridine): 18; Half Life, Buffer pH 7.4 [9]: 323.5 ± 1.5^a min
N[C@@H](Cc1ccccc1)C(=O)OC[C@H]1O[C@@H](n2cc(F)c(=O)[nH]c2=O)C[C@@H]1O [5'-O-L-phenylalanyl-floxuridine]	222 ± 56.7	11.1 ± 9.9	11.8 ± 1.7	6 ± 0.6	2100 ± 100	2000 ± 100	41.3 ± 3.9	4.7 ± 2.4	8.80	fold less stability in cell homogenates compared to pH 7.4 phosphate buffers ([2]; cell homogenates vs pH 7.4 phosphate buffers): 20 fold
CC(C)[C@H](N)C(=O)OC[C@H]1O[C@@H](n2cc(F)c(=O)[nH]c2=O)C[C@@H]1O [5'-O-L-valyl-floxuridine]	304 ± 17.8	9.4 ± 0.6	18.7 ± 6.7	74.7 ± 5.3	1000 ± 100	2900 ± 400	127 ± 7.7	21.1 ± 4.2	5.91	fold shorter half-life in Caco-2 cell homogenates than in AsPC-1 cell homogenates ([2]; Caco-2 vs AsPC-1 cell homogenates): 2 fold; Enhancement Factor (ratio of GI50 in MDCK and MDCK/hPEPT1 cells) ([8]; listed as 5ʹ-O-L-valyl-floxuridine): about 6
CC(C)[C@@H](N)C(=O)OC[C@H]1O[C@@H](n2cc(F)c(=O)[nH]c2=O)C[C@@H]1O [5'-O-D-valyl-floxuridine]	345 ± 10.2	343 ± 120	291 ± 48.9	312 ± 45.4	2600 ± 100	4800 ± 1300	88.5 ± 2.6	71 ± 2.7	1.25	fold less inhibition of the transporters than 5'-O-L-valyl-floxuridine, Caco-2 cells [5, 11]: 2.5 fold; fold less inhibition of the transporters than 5'-O-L-valyl-floxuridine, AsPC-1 cells [6, 11]: 1.6 fold; improvement of cell growth inhibition in MDCK/hPEPT1 cells ([8]; MDCK/hPEPT1 vs MDCK): 25%
O=c1[nH]c(=O)n([C@H]2C[C@H](O)[C@@H](CO)O2)cc1F [Floxuridine, 5-fluoro-2'-deoxyuridine]	–	5.7 ± 0.3	6.4 ± 3.2	68.9 ± 12.8	7300 ± 1600	6300 ± 2300	–	–	1.00	fold higher Caco-2 membrane permeability than 5-FU [10]: 12 fold

Reference: paper PMC6244841, “Enhanced Absorption and Growth Inhibition with Amino Acid Monoester Prodrugs of Floxuridine by Targeting hPEPT1 Transporters” (Molecules, 2008)
